Series [1] has as its system HBV. Nature of the series: Anti-HBV activity in HepG2.2.15 stable transfected cell line (HBV DNA from secreted virions, realtime PCR). The series is classed as cell-based, Hepatitis B virus. The note with it: HepG2.2.15 cells, 6 days of treatment, HBV DNA from secreted virions by realtime PCR.
For series [2], the system named is HBV. Nature of the series: Anti-HBV activity in HepG2.117 inducible HBV producing cell line (intracellular HBV DNA, realtime PCR). In kind it is cell-based, Hepatitis B virus. The note with it: HepG2.117 cells (Tet-off), 3 days of treatment, intracellular HBV DNA by realtime PCR.
In the next series the test system is HepG2 cells. In words: Cytotoxicity in HepG2 cells (Resazurin assay). In kind it is cell-based. The note with it: incubated 4 days, viability by Resazurin assay. In general terms: The colour change of resazurin is a common sign of viable cells or microbes.
A short description of series [3]: Cytotoxicity in HepG2 cells (Resazurin assay). In kind it is cell-based. The note with it: human, incubated 4 days, viability by Resazurin assay.
Where [4] appears, read: Hepatitis B virus, HepG2.117, 72 h.
[5] abbreviates: Hepatitis B virus, HepG2.2.15, 144 h.

By EC50 is commonly meant the midpoint of the concentration-response curve. By CC50 is commonly meant the concentration giving 50% cytotoxicity. A low value points to greater toxicity to the cells. For orientation: melting point means the temperature of the solid-liquid transition.

For the molecule `Cc1cc(NC(=O)C2CC(C)N(C(=O)C(=O)NC3(C)COC3)C2)ccc1F` (single isomer, unassigned) [Compound 17b, N-(4-fluoro-3-methylphenyl)-5-methyl-1-(2-((3-methyloxetan-3-yl)amino)-2-oxoacetyl)pyrrolidine-3-carboxamide], the EC50 came to 0.918 µM in the series on HBV [1] and 0.796 µM in the series on HBV [2]. In the series on HepG2 cells, this molecule yielded a half-maximal cytotoxic concentration (CC50) of over 25 µM.
Take `Cc1cc(NC(=O)C2CC(C)N(C(=O)C(=O)NC3(C)COC3)C2)ccc1F` (single isomer, unassigned) [Compound 17d, N-(4-fluoro-3-methylphenyl)-5-methyl-1-(2-((3-methyloxetan-3-yl)amino)-2-oxoacetyl)pyrrolidine-3-carboxamide]: the concentration for a half-maximal effect (EC50) in the series on HBV [1] was determined as 0.07 µM; in the series on HBV [2], 0.032 µM. The same molecule returned a CC50 in the series on HepG2 cells of over 25 µM.
The matching figures for `CC1C(C(=O)Nc2ccc(F)c(Cl)c2F)CCCN1C(=O)C(=O)N[C@H](C)C(F)(F)F` (single isomer, unassigned) [Compound 35b]: 0.195 µM, 0.483 µM and over 25 µM.
The matching figures for `CC1C(C(=O)Nc2ccc(F)c(Cl)c2F)CCCN1C(=O)C(=O)N[C@H](C)C(F)(F)F` (single isomer, unassigned) [Compound 35d]: over 1 µM, over 1 µM and over 25 µM.
`CC(C)NC(=O)C(=O)N1CCC(C(=O)Nc2cc(F)c(F)c(Cl)c2)[C@@H]1C` (single isomer, unassigned) [Compound 29b]: the EC50 in the series on HBV [1] and in the series with HBV [2] was over 1 µM in each case. The molecule also registered a CC50 in the series on HepG2 cells of over 25 µM.
Consider `C[C@@H](NC(=O)C(=O)N1CC[C@H](C(=O)Nc2cc(F)c(F)c(F)c2)C1)C(F)(F)F` [Compound 32, (3S)-1-[2-oxo-2-[[(1R)-2,2,2-trifluoro-1-methyl-ethyl]amino]acetyl]-N-(3,4,5-trifluorophenyl)pyrrolidine-3-carboxamide], for which the melting point was found to be 197.3 °C. This molecule registered an EC50 in the series with HBV [2] (setting [4]) of 0.052 µM. Also, in series [3], the CC50 at 4 days was over 25 µM.
Turning to `CC1C(C(=O)Nc2ccc(F)c(Cl)c2F)CCCN1C(=O)C(=O)N[C@H](C)C(F)(F)F` (single isomer, unassigned) [Compound 35c], the EC50 in the series with HBV [1] and in the series with HBV [2] was over 1 µM throughout. Besides, the CC50 with HepG2 cells was over 25 µM.
For the molecule `Cc1cc(NC(=O)C2CC(C)N(C(=O)C(=O)NC3(C)COC3)C2)ccc1F` (single isomer, unassigned) [Compound 17c, N-(4-fluoro-3-methylphenyl)-5-methyl-1-(2-((3-methyloxetan-3-yl)amino)-2-oxoacetyl)pyrrolidine-3-carboxamide], the EC50 in the series on HBV [1] and in the series on HBV [2] was over 1 µM throughout. In addition, the CC50 in the series on HepG2 cells is over 25 µM.
As to `Cc1cc(NC(=O)[C@H]2CCN(C(=O)C(=O)NC3CCCC3)C2)ccc1F` [Compound 5], the half-maximal effective concentration (EC50) was found to be 0.112 µM in the series with HBV [1] (setting [5]) and 0.046 µM in the series on HBV [2] (setting [4]). The CC50 at 4 days in series [3] is over 25 µM.
The like results for `Cc1cc(NC(=O)[C@H]2CCCN(C(=O)C(=O)NC(C)C)C2)ccc1F` [Compound 12, (3S)-N-(4-Fluoro-3-methylphenyl)-1-{[(1-methylethyl)amino] (oxo)-acetyl}piperidine-3-carboxamide] were, in that order, 0.321 µM, 0.115 µM and over 25 µM.
